Laboratory results reported in patent US20210179561A1, “ACID ADDITION SALTS OF APOMORPHINE, PHARMACEUTICAL COMPOSITIONS CONTAINING THE SAME, AND METHODS OF USING THE SAME” (Sunovion Pharmaceuticals Inc., priority 2018, published 2021).
Where a name gives a salt, the structure may show the parent alone.

Experiments:
physchem = conditions: water
[1] = Intrinsic dissolution (Wood's apparatus, HPLC) in pH 4.5 acetate buffer or artificial saliva; conditions: for dissolution rates compared with apomorphine glycolate and apomorphine sulfamate: in words
[2] = Dynamic vapor sorption/desorption (DVS); format: physicochemical; conditions: for DVS weight change at 5% equilibration: 5% RH equilibration; for DVS weight loss from 95 to 5% RH: desorption 95 to 5% RH; for DVS weight gain from 5 to 95% RH: sorption 5 to 95% RH
Experimental: Dynamic vapor sorption (DVS) data were collected on a VTI SGA-100 Vapor Sorption Analyzer. NaCl and PVP were used as calibration standards. Samples were not dried prior to analysis. Sorption and desorption data were collected over a range from 5% to 95% RH at 10% RH increments under a nitrogen purge. The equilibrium criterion used for analysis was less than 0.0100% weight change in 5 minutes with a maximum equilibration time of 3 hours. Data were not corrected for the initial moisture content of the samples.

[3] = solution from aqueous solubility test
[4] = Approximate aqueous solubility of apomorphine salts; conditions: water
[5] = Artificial saliva, 37° C., Table 5 (mean of two tests except glycolate)
[6] = pH 4.5 acetate buffer, 37° C., Table 5 (mean of two tests except glycolate)

Compound | IDR [1, 5] [mg/cm^2/min] | dissolution rates compared with apomorphine glycolate and apomorphine sulfamate [1] | IDR [1, 6] [mg/cm^2/min] | DVS weight change at 5% equilibration [2] [%] | DVS weight loss from 95 to 5% RH [2] [%] | DVS weight gain from 5 to 95% RH [2] [%] | Approximate Aqueous Solubility [4] [mg/mL] | further results
CN1CCc2cccc3c2[C@H]1Cc1ccc(O)c(O)c1-3 [Hydrochloride, apomorphine hydrochloride, reference compound] | 0.582 | significantly lower | 2.643 |  |  |  |  | solubility (physchem): ~21 mg/mL
CC(C)C(=O)O.CN1CCc2cccc3c2C1Cc1ccc(O)c(O)c1-3 (stereo not shown) [Isobutyrate, apomorphine isobutyrate] | 0.305 | significantly lower | 1.576 | 0.0 | 0.2 | 0.1 |  | 
apomorphine glutarate |  |  |  |  |  |  | 3 | Approximate pH of Aqueous Solution [3]: 6
apomorphine glycolate | 10.862 |  | 34.775 | 0.0 | 0.5 | 0.5 |  | Dissolution in pH 4.5 Acetate Buffer ([1]; 1 min, single experiment): 14.548 mg/cm^2; Dissolution in Artificial Saliva ([1]; 3 min, single experiment): 42.192 mg/cm^2; Dissolution in pH 4.5 Acetate Buffer ([1]; 3 min, single experiment): 38.801 mg/cm^2; Dissolution in Artificial Saliva ([1]; 3.5 min, single experiment): 47.686 mg/cm^2; Dissolution in pH 4.5 Acetate Buffer ([1]; 3.5 min, single experiment): 51.432 mg/cm^2; Dissolution in Artificial Saliva ([1]; 4 min, single experiment): 53.878 mg/cm^2; Dissolution in pH 4.5 Acetate Buffer ([1]; 4 min, single experiment): 72.492 mg/cm^2; Dissolution in Artificial Saliva ([1]; 4.5 min, single experiment): 58.232 mg/cm^2; Dissolution in pH 4.5 Acetate Buffer ([1]; 4.5 min, single experiment): 89.739 mg/cm^2; IDR ([1]; artificial saliva, single experiment): 10.862 mg/cm^2/min; IDR ([1]; pH 4.5 acetate buffer, single experiment): 34.775 mg/cm^2/min
apomorphine methylbenzoate |  |  |  |  |  |  | <1 | 
apomorphine sulfamate | 16.873 |  | 19.598 | 0.0 | 25.4 |  |  | DVS weight gain from 5 to 85% RH ([2]; sorption 5 to 85% RH): 1.0%
